Data: patent US9192638B2, “Preparation comprising amino acids and plants and its activity in the alcohol detoxification” (Modutech S.A., priority 2009, dated 2015)

Tested on: Mice
Assay: Acute cerebral ischemia hypoxia survival time of mice, different formulations (Example 1)
Type: in vivo
Details: 800 mg/kg per day oral, 7 days, sacrificed 1 h after last dosing
Procedure: The acute cerebral ischemia hypoxia survival time of the mice through different formulations is provided.
Dosage: 800 mg/kg per day per group. The test sample is prepared by redistilled water and drenched into the stomach through the mouth for seven days continuously.
Testing Method: The mice are respectively sacrificed one hour after the last stomach drenching, and the time from the sacrifice of the mice to the time when they stop gasping through mouths is recorded with a second counter.

NC(=O)NCCC[C@H](N)C(=O)O [Sample 1, Citrulline]
Gasp Stopping Time: 12.6 s
